Experimental data reported in patent publication US12691112B2, “FGFR tyrosine kinase inhibitors for the treatment of urothelial carcinoma” (Janssen Pharmaceutica NV, priority 2019, dated 2026).

Key:
[1] = system: urothelial cancer; assay: Best response to prior chemotherapy before study enrolment, per investigator assessment; assay type: in vivo, human; details: first-line chemotherapy before study enrolment; across all regimens
[2] = 10 patients, nine with disease progression on prior immunotherapy; cited from earlier work

gemcitabine plus cisplatin
best ORR per investigator assessment [1]: 35%

COCc1c(-c2cc3cc(C)cc(OC)c3s2)c2c(N)ncnn2c1CN1CCNC(=O)C1 [rogaratinib]
patients who responded [2]: 30%
